{
  "source": "ChEMBL document CHEMBL3108728",
  "about": "“Anti-inflammatory activity of rhamnetin and a model of its binding to c-Jun NH2-terminal kinase 1 and p38 MAPK” (J Nat Prod, 2014)",
  "key": {"[1]": {"biological_target": "Mitogen-activated protein kinase 8 (Homo sapiens) (UniProt P45983)", "sequence (P45983 whole entry)": "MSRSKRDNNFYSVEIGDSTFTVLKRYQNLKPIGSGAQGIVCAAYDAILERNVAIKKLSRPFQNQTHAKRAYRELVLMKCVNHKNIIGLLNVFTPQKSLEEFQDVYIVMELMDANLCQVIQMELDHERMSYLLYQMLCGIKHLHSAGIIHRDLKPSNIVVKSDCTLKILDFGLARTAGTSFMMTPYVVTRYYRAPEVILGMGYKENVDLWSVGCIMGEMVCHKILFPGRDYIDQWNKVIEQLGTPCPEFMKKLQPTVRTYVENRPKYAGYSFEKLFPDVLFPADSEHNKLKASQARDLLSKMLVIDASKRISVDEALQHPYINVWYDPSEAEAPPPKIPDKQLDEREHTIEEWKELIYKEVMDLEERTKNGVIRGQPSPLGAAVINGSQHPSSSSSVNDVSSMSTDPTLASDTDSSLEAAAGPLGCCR", "test": "Binding affinity to human C-terminal His6-tagged JNK1alpha1 (1 to 364) expressed in Escherichia coli by spectrofluorometry"}, "RAW264.7 [2]": {"system": "RAW264.7", "test": "Antiinflammatory activity against mouse RAW264.7 cells assessed as inhibition of LPS-induced TNFalpha production at 10 uM after 24 hrs by ELISA", "type": "functional", "settings": "RAW264.7, 24 h"}, "RAW264.7 [3]": {"system": "RAW264.7", "test": "Cytotoxicity against mouse RAW264.7 cells up to 12.5 uM after 24 hrs by MTT assay relative to untreated control", "type": "cell-based", "settings": "raw264.7, 24 h"}, "HaCaT": {"system": "HaCaT", "test": "Cytotoxicity against human HaCaT cells at 100 uM after 24 hrs by MTT assay relative to untreated control", "type": "cell-based"}, "[4]": {"biological_target": "T1, MAP kinase p38 (Mus musculus) (UniProt P47811+O08911+Q9WUI1+Q9Z1B7)", "test": "Inhibition of IFNgamma-induced p38 MAPK phosphorylation in mouse RAW264.7 cells at 20 uM by Western blotting analysis relative to untreated control", "type": "cell-based"}, "[5]": {"biological_target": "Mitogen-activated protein kinase 8 (Mus musculus) (UniProt Q91Y86)", "sequence (Q91Y86 whole entry)": "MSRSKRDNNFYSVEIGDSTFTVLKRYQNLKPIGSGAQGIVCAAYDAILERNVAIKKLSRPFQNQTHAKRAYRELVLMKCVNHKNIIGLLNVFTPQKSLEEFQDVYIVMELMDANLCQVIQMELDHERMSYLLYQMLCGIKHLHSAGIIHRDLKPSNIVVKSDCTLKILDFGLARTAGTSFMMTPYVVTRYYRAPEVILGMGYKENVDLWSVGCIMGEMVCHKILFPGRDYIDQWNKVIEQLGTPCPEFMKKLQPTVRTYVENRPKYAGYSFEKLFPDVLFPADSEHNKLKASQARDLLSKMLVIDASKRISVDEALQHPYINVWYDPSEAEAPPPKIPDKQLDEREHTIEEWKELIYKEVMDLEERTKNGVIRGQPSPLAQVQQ", "test": "Inhibition of LPS-induced JNK phosphorylation in mouse RAW264.7 cells at 20 uM by Western blotting analysis", "type": "cell-based"}, "RAW264.7 [6]": {"system": "RAW264.7", "test": "Antiinflammatory activity against mouse RAW264.7 cells assessed as reduction of LPS-induced mMIP-1 mRNA expression at 25 uM after 3 hrs by RT-PCR analysis relative to untreated control", "type": "functional", "design": "scale not given: the % may be the effect or the level left"}, "[7]": {"test": "Cytotoxicity against mouse RAW264.7 cells assessed as cell survival at 100 uM after 24 hrs by MTT assay relative to untreated control", "type": "cell-based", "settings": "read-out: Survival"}, "[8]": {"biological_target": "T2, MAP kinase p38 (Homo sapiens) (UniProt O15264+Q15759+Q16539+P53778)", "test": "Binding affinity to human p38 MAPK expressed in Escherichia coli by circular dichroism method"}, "RAW264.7 [9]": {"system": "RAW264.7", "test": "Antiinflammatory activity against mouse RAW264.7 cells assessed as reduction of LPS-induced mTNFalpha mRNA expression at 25 uM after 3 hrs by RT-PCR analysis relative to untreated control", "type": "functional, cell-based"}, "[10]": {"biological_target": "Mitogen-activated protein kinase 8 (Homo sapiens) (UniProt P45983)", "test": "Binding affinity to human C-terminal His6-tagged JNK1alpha1 (1 to 364) expressed in Escherichia coli by circular dichroism method"}, "RAW264.7 [11]": {"system": "RAW264.7", "test": "Antiinflammatory activity against mouse RAW264.7 cells assessed as reduction of LPS-induced mMIP-2 level at 10 uM after 24 hrs by ELISA relative to untreated control", "type": "functional", "design": "scale not given: the % may be the effect or the level left"}, "[12]": {"biological_target": "Mitogen-activated protein kinase 8 (Mus musculus) (UniProt Q91Y86)", "test": "Inhibition of IFNgamma-induced JNK phosphorylation in mouse RAW264.7 cells at 20 uM by Western blotting analysis relative to untreated control", "type": "cell-based"}, "[13]": {"biological_target": "Mitogen-activated protein kinase 3 (Mus musculus) (UniProt Q63844)", "sequence (Q63844 whole entry)": "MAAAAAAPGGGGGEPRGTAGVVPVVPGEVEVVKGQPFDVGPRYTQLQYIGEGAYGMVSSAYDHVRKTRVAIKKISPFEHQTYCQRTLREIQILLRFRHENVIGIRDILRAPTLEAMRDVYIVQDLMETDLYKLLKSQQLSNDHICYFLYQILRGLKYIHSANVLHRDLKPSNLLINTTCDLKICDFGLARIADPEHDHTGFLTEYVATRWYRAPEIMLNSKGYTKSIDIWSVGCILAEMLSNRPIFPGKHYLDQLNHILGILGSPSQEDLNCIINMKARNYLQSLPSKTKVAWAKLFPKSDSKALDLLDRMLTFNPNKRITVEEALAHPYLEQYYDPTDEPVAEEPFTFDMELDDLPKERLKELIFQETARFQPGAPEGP", "test": "Inhibition of LPS-induced ERK phosphorylation in mouse RAW264.7 cells at 20 uM by Western blotting analysis", "type": "cell-based"}, "[14]": {"biological_target": "Mitogen-activated protein kinase 3 (Mus musculus) (UniProt Q63844)", "test": "Inhibition of IFNgamma-induced ERK phosphorylation in mouse RAW264.7 cells at 20 uM by Western blotting analysis relative to untreated control", "type": "cell-based"}, "[15]": {"biological_target": "T1, MAP kinase p38 (Mus musculus)", "test": "Inhibition of LPS-induced p38 MAPK phosphorylation in mouse RAW264.7 cells at 20 uM by Western blotting analysis", "type": "cell-based"}, "RAW264.7 [16]": {"system": "RAW264.7", "test": "Antiinflammatory activity against mouse RAW264.7 cells assessed as reduction of LPS-induced NO production at 20 uM after 24 hrs", "type": "functional", "design": "scale not given: the % may be the effect or the level left"}, "[17]": {"biological_target": "T3, Monocyte differentiation antigen CD14 (Mus musculus) (UniProt P10810)", "T3 sequence (whole entry)": "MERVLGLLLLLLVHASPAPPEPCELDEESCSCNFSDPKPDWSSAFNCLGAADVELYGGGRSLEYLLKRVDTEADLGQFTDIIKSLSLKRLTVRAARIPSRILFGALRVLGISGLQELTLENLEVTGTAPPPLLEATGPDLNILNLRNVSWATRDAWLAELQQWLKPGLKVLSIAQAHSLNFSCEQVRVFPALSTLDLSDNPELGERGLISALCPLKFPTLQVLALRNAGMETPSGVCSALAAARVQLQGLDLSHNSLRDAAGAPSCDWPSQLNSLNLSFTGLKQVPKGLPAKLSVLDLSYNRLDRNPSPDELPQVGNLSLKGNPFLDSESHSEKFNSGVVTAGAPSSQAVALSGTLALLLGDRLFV", "test": "Inhibition of CD14 in mouse RAW264.7 cells at 20 uM by Western blotting analysis", "type": "cell-based"}, "RAW264.7 [18]": {"system": "RAW264.7", "test": "Antiinflammatory activity against mouse RAW264.7 cells assessed as inhibition of LPS-induced COX2 protein expression at 20 uM by Western blotting analysis", "type": "functional"}, "RAW264.7 [19]": {"system": "RAW264.7", "test": "Antiinflammatory activity against mouse RAW264.7 cells assessed as reduction of LPS-induced NO production at 10 uM after 24 hrs", "type": "functional", "design": "scale not given: the % may be the effect or the level left"}, "RAW264.7 [20]": {"system": "RAW264.7", "test": "Antiinflammatory activity against mouse RAW264.7 cells assessed as reduction of IFNgamma-induced NO production at 10 uM after 24 hrs", "type": "functional", "design": "scale not given: the % may be the effect or the level left"}, "RAW264.7 [21]": {"system": "RAW264.7", "test": "Antiinflammatory activity against mouse RAW264.7 cells assessed as inhibition of LPS-induced TNFalpha production at 20 uM after 24 hrs by ELISA", "type": "functional", "settings": "RAW264.7, 24 h"}, "RAW264.7 [22]": {"system": "RAW264.7", "test": "Antiinflammatory activity against mouse RAW264.7 cells assessed as reduction of IFNgamma-induced NO production at 20 uM after 24 hrs", "type": "functional", "design": "scale not given: the % may be the effect or the level left"}, "RAW264.7 [23]": {"system": "RAW264.7", "test": "Antiinflammatory activity against mouse RAW264.7 cells assessed as reduction of LPS-induced mMIP-2 level at 20 uM after 24 hrs by ELISA relative to untreated control", "type": "functional", "design": "scale not given: the % may be the effect or the level left"}, "[24]": {"biological_target": "T2, MAP kinase p38 (Homo sapiens)", "test": "Binding affinity to human p38 MAPK expressed in Escherichia coli by spectrofluorometry"}, "RAW264.7 [25]": {"system": "RAW264.7", "test": "Antiinflammatory activity against mouse RAW264.7 cells assessed as reduction of LPS-induced mMIP-2 mRNA expression at 25 uM after 3 hrs by RT-PCR analysis relative to untreated control", "type": "functional, cell-based"}},
  "note": "Active and inactive are the calls of the source. The calls are words filed in the database; no cut-off is given here.",
  "data": [
    {"smiles": "COc1cc(O)c2c(=O)c(O)c(-c3ccc(O)c(O)c3)oc2c1", "note": "[RHAMNETIN]", "values": [
      {"measurement": "K", "setting": "[1]", "value": 9.7, "unit": "×10⁸ /M"},
      {"measurement": "inhibition at 10 µM", "setting": "RAW264.7 [2]", "value": 54, "unit": "%"},
      {"measurement": "Activity", "setting": "RAW264.7 [3]", "value": "Non-toxic"},
      {"measurement": "Activity", "setting": "HaCaT", "value": "Non-toxic"},
      {"measurement": "inhibition", "setting": "[4]", "value": 58, "unit": "%"},
      {"measurement": "inhibition", "setting": "[5]", "value": 64, "unit": "%"},
      {"measurement": "Activity", "setting": "RAW264.7 [6]", "value": 96.2, "unit": "%"},
      {"measurement": "viability at 24 h, 100 µM", "setting": "[7]", "value": "> 55", "unit": "%"},
      {"measurement": "Activity", "setting": "[8]", "value": "Active"},
      {"measurement": "Activity", "setting": "RAW264.7 [9]", "value": "Active"},
      {"measurement": "Activity", "setting": "[10]", "value": "Active"},
      {"measurement": "Activity", "setting": "RAW264.7 [11]", "value": 42, "unit": "%"},
      {"measurement": "inhibition", "setting": "[12]", "value": 92, "unit": "%"},
      {"measurement": "inhibition", "setting": "[13]", "value": 27, "unit": "%"},
      {"measurement": "inhibition", "setting": "[14]", "value": 38, "unit": "%"},
      {"measurement": "inhibition", "setting": "[15]", "value": 51, "unit": "%"},
      {"measurement": "Activity", "setting": "RAW264.7 [16]", "value": 74, "unit": "%"},
      {"measurement": "inhibition", "setting": "[17]", "value": "inactive"},
      {"measurement": "inhibition at 20 µM", "setting": "RAW264.7 [18]", "value": 76, "unit": "%"},
      {"measurement": "Activity", "setting": "RAW264.7 [19]", "value": 62, "unit": "%"},
      {"measurement": "Activity", "setting": "RAW264.7 [20]", "value": 73.2, "unit": "%"},
      {"measurement": "inhibition at 20 µM", "setting": "RAW264.7 [21]", "value": 63, "unit": "%"},
      {"measurement": "Activity", "setting": "RAW264.7 [22]", "value": 91.5, "unit": "%"},
      {"measurement": "Activity", "setting": "RAW264.7 [23]", "value": 77, "unit": "%"},
      {"measurement": "K", "setting": "[24]", "value": 2.31, "unit": "×10⁷ /M"},
      {"measurement": "Activity", "setting": "RAW264.7 [25]", "value": "Active"}
    ]}
  ]
}
